Reference: patent publication US20240182413A1, “INSECTICIDAL COMPOUNDS” (Pluton Biosciences, Inc., priority 2022, published 2024)
Values after ≈ are worked out from the molar mass of the structure shown. Values joined by “and” are separate entries in the source; they are usually repeats but may differ in a detail not shown here. Equal values may be shown once. “Also recorded” adds a separate entry of the source. Read-outs that look alike come from different tables or passages of the source.

Assays:
[1] = system: Aedes aegypti larvae; test: Aedes aegypti killing assay (larval bioassay, two-fold dilution series); assay type: in vivo; settings: for killing activity against Aedes aegypti: larvae
Procedure: Insect killing assays. Each compound was dissolved in dimethyl sulfoxide (DMSO). Killing dose curves were constructed for each compound by producing a two-fold dilution series for each compound (e.g., comprising approximately 20 serial dilutions of a stock). Dilutions were made in sterile nutrient yeast extract salt medium (NYSM) broth. The NYSM contained 8 g/L nutrient broth powder, 0.5 g/L yeast extract, 1 mM MgCl2, 700 μM CaCl2, and 50 μM MnCl2 in water. The two-fold dilution series were tested in a killing bioassay as described below. Data were collected to construct a dose curve and determine the half-maximal lethal concentration (LC50) value.
Bioassays were performed using second or third instar Aedes aegypti larvae, with biological replication. Ae. aegpyti larvae were purchased from Benzon Research, Inc. (Carlisle, PA). Larvae were washed with sterile water before transfer to 24-well assay plates containing 1 mL of sterile water in each well. Each well contained 5 larvae. The final DMSO concentration in each assay well was 1%. Larval mortality was scored for each well at 24-hour timepoints after application. […] In Table 1, mean mortalities and standard deviations were calculated from at least three independent biological replicates. […] LC50 values were calculated using GraphPad Prism software.

[2] = system: Spodoptera frugiperda (fall armyworm) first instar larvae; test: Spodoptera frugiperda killing assay (diet-surface overlay); assay type: in vivo; settings: first instar larvae; for LC50: Spodoptera frugiperda
Procedure: Insect killing assays. Each compound was dissolved in dimethyl sulfoxide (DMSO). Killing dose curves were constructed for each compound by producing a two-fold dilution series of the compound (e.g., comprising approximately 16 serial dilutions of a stock for 3,3′-diindolylmethane and 3-((1H-Indol-2-yl)methyl)-1H-indole and comprising approximately 12 serial dilutions of a stock for 3,3′-diindolyl and 3,3′-(pyridin-4-ylmethylene)bis(1H-indole)). Dilutions were made in sterile NYSM broth as described above. The two-fold dilution series were tested in a killing bioassay as described below. Data were collected to construct a dose curve and determine the half-maximal lethal concentration (LC50) value.
Bioassays were performed using first instar larvae of the Lepidopteran species Spodoptera frugiperda (fall armyworm), with an N=16 for each concentration of compound tested. S. frugiperda larvae were purchased from Benzon Research, Inc. (Carlisle, PA). A diet-surface overlay format was used in which 1 milliliter of standard lepidopteran diet was placed in each well. One hundred microliters of sample were pipetted into each well and allowed to dry. A DMSO control was included with each set of samples.
During the development of embodiments of the technology described herein, experiments were conducted to test the killing of arundine against a panel of 11 insect species. […] Briefly, arundine was dissolved in dimethyl sulfoxide (DMSO). Killing dose curves were constructed by producing a two-fold dilution series of arundine. Dilutions were made in sterile NYSM as described. The two-fold dilution series were tested in a killing bioassay performed using first instar larvae of the species listed in Table 4, with an N=16 for each concentration of compound tested. A diet-surface overlay format was used in which 1 milliliter of standard lepidopteran diet was placed in each well. One hundred microliters of sample were pipetted into each well and allowed to dry. A DMSO control was included with each set of samples. […] Data were collected to construct a dose curve and determine the half-maximal lethal concentration (LC50) value.

[3] = second or third instar larvae, mortalities at 72 hours, mean ± standard deviation, at least three biological replicates
[4] = second or third instar larvae, mortalities at 72 hours, mean ± standard deviation, at least three biological replicates, read-out: LC50
[5] = calculated from killing dose curves FIG. 3D to 3NN, read-out: LD50 (the source's name)

COc1ccc(C(c2c[nH]c3ccccc23)c2c[nH]c3ccccc23)cc1 [1,1-bis(3′-indolyl)-1-(p-methoxyphenyl)methane]
LC50 ([1]; in vivo): 66.6 ± 56.4 µM
LC50 (μg/mL) ([1]; in vivo): 23.4 ± 19.8 µg/mL (≈ 66.4 µM)

Cc1cn(C)c2ccccc12 [1,3 dimethylindole, 1,3-dimethylindole]
LC50 ([1]; Aedes aegypti, 72 h): 13.8 µg/mL and 95.2 µM

Cc1cc2ccccc2[nH]1 [2-methindole]
LC50 (μg/mL) [1, 3]: 6.8 ± 0.5 µg/mL (≈ 51.8 µM)
LC50 [1, 4]: 52.2 ± 3.6 µM

Clc1ccc(C(c2c[nH]c3ccccc23)c2c[nH]c3ccccc23)cc1 [3,3′-((4-chlorophenyl)methylene)bis(1H-indole)]
LC50 ([1]; Aedes aegypti, 72 h): 2.6 µg/mL and 7.3 µM

CC(c1c[nH]c2ccccc12)c1c[nH]c2ccccc12 [3,3′-(ethane-1,1-diyl)bis(1H-indole)]
LC50 ([1]; Aedes aegypti, 72 h): 4.2 µg/mL and 16.1 µM

c1ccc2c(C(c3ccncc3)c3c[nH]c4ccccc34)c[nH]c2c1 [3,3′-(pyridin-4-ylmethylene)bis(1H-indole)]
LC50 ([2]; N=16 per concentration, representative curve fit): 120 µg/mL and 370 µM
activity against S. frugiperda [2]: active
LC50 ([1]; Aedes aegypti, 72 h): 62.9 µg/mL and 194 µM
killing activity against Aedes aegypti [1]: active

c1ccc2c(-c3c[nH]c4ccccc34)c[nH]c2c1 [3,3′-diindolyl]
activity against S. frugiperda [2]: not active; also recorded: does not have significant killing activity
killing activity against Aedes aegypti [1]: did not display any bioactivity; also recorded: does not have significant killing activity
LC50 (μg/mL) [1, 3]: >2500 µg/mL
LC50 [1, 4]: > 1000 µM

Fc1ccc2[nH]cc(Cc3c[nH]c4ccc(F)cc34)c2c1 [3,3′-methylenebis(5-fluoro-1H-indole)]
LC50 ([1]; Aedes aegypti, 72 h): 2.2 µg/mL and 7.8 µM

CCc1c[nH]c2ccccc12 [3-ethyl-1H-indole]
LC50 ([1]; Aedes aegypti, second or third instar larvae, mortalities at 72 hours, mean ± standard deviation, at least three biological replicates, read-out: LC50): 60 ± 24.2 µM
LC50 ([1]; Aedes aegypti, second or third instar larvae, mortalities at 72 hours, mean ± standard deviation, at least three biological replicates, read-out: LC50 (μg/mL)): 8.7 ± 3.5 µg/mL

Oc1ccc2[nH]ccc2c1 [5-hydroxyindole]
LC50 ([1]; Aedes aegypti, 72 h): 279 µg/mL and 2.09 mM

Cn1cc(Cc2cn(C)c3ccccc23)c2ccccc21 [BIM-2]
LC50 [2, 5]: > 3000 µM

CC(c1c[nH]c2ccccc12)c1c[nH]c2ccccc12 [BIM-3]
LC50 [2, 5]: 1280 µM

CC(C)(c1c[nH]c2ccccc12)c1c[nH]c2ccccc12 [BIM-4]
LC50 [2, 5]: 1810 µM

CCC(c1c[nH]c2ccccc12)c1c[nH]c2ccccc12 [BIM-5]
LC50 [2, 5]: 2380 µM

CCCC(c1c[nH]c2ccccc12)c1c[nH]c2ccccc12 [BIM-6]
LC50 [2, 5]: 3240 µM

c1ccc(C(c2c[nH]c3ccccc23)c2c[nH]c3ccccc23)cc1 [BIM-7]
LC50 [2, 5]: 1680 µM

c1ccc(CC(c2c[nH]c3ccccc23)c2c[nH]c3ccccc23)cc1 [BIM-8]
LC50 [2, 5]: 1480 µM

Clc1cccc2[nH]cc(Cc3c[nH]c4cccc(Cl)c34)c12 [BIM-9]
LC50 [2, 5]: 1560 µM

Clc1ccc2[nH]cc(Cc3c[nH]c4ccc(Cl)cc34)c2c1 [BIM-10]
LC50 [2, 5]: > 3000 µM

Clc1cccc2c(Cc3c[nH]c4c(Cl)cccc34)c[nH]c12 [BIM-12]
LC50 [2, 5]: 1180 µM

Fc1ccc2c(Cc3c[nH]c4cc(F)ccc34)c[nH]c2c1 [BIM-13]
LC50 [2, 5]: 1850 µM
